Results on 8 compounds are retold here after patent US20150274777A1, “KETOAMIDE IMMUNOPROTEASOME INHIBITORS” (HOFFMANN-LA ROCHE INC., priority 2012, published 2015).

For assay [1], the system named is MRL/lpr lupus-prone mice model. The settings on record: cited from earlier work.
Assay [2] concerns mouse CAIA and CIA arthritis models. As to conditions: cited from earlier work.
In assay [3] the test system is DSS-induced colitis model. The settings on record: DSS-induced colitis model in mice; cited from earlier work.
A further assay addresses T1, β5c (Homo sapiens, UniProt P20618+P28074).
T1 construct: protease activity associated with the proteasome complex in cultured cells; endogenous in cells; host or cells: Ramos cells
Nature of the assay: Cell-Based Proteasome Activity/Selectivity Assay (Ramos cells), substrate (WLA)2Rh110. The settings on record: highest concentration tested 20 μM. The essentials: (§1)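 Ramos cells (5×10^4/well in DPBS) were treated with 4-fold compound dilutions (top 20 μM) for 30 min at 37 °C. A 2× mix of 0.025% digitonin, 20 μM of each Rh110 substrate and 0.5 M sucrose was added, then incubated 120 min at room temperature. Rh110 fluorescence was read at 500/519 nm.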

A further assay addresses T2, β1c (Homo sapiens, UniProt P28072+Q99436).
T2 construct: protease activity associated with the proteasome complex in cultured cells; endogenous in cells; host or cells: Ramos cells
Nature of the assay: Cell-Based Proteasome Activity/Selectivity Assay (Ramos cells), substrate (LLE)2 Rh110. As to conditions: highest concentration tested 20 μM. The essentials:
as §1

In another assay the target is T3, β5i (Homo sapiens, UniProt P20618+P28062).
T3 construct: protease activity associated with the proteasome complex in cultured cells; endogenous in cells; host or cells: Ramos cells
As to the kind of experiment: Cell-Based Proteasome Activity/Selectivity Assay (Ramos cells), substrate (ANW)2Rh110. As to conditions: highest concentration tested 20 μM, read-out: Ic50 ramos:ac-(anw)2-r110. The method, boiled down:
as §1

Another assay concerns β2c/2i. Nature of the assay: Cell-Based Proteasome Activity/Selectivity Assay (Ramos cells), substrate (KQL)2Rh110. As to conditions: highest concentration tested 20 μM. The method, boiled down:
as §1

The next assay has as its target T4, β1i (Homo sapiens, UniProt P28065+P40306).
T4 construct: protease activity associated with the proteasome complex in cultured cells; endogenous in cells; host or cells: Ramos cells
As to the kind of experiment: Cell-Based Proteasome Activity/Selectivity Assay (Ramos cells), substrate (PAL)2Rh110. The settings on record: highest concentration tested 20 μM. The essentials:
as §1

Assay [4] relates to IP10 level in PBMCs stimulated with CpG Type A. Nature of the assay: PBMC IP-10 Assay. The settings on record: CpG Type A 2.5 μM. It is filed as cell-based. The method, boiled down: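 Human PBMCs (~2×10^5/well) preincubated 60 min at 37° C. with titrated compound (1% DMSO final), then stimulated with CpG Type A (ODN 2216) at 2.5 μM final overnight. Supernatant IP-10 quantified by AlphaLISA; viability of remaining cells by ATP luminescence.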

As to `COc1ccc(C[C@H](NC(=O)[C@H](C)NC(=O)CN2CCOCC2)C(=O)N[C@@H](Cc2ccccc2)C(=O)[C@@]2(C)CO2)cc1` [PR-957], in [1], the disease progression result is reported as “prevented”; the “plasma cells numbers and levels of anti-dsDNA IgG” value is on record as “reduced”. The disease score entry in assay [2] is on record as “significantly decreased”. For the same compound, the “inflammation and tissue destruction” value in [3] is “reduced”.
For `COc1ccc(C[C@H](NC(=O)[C@H](C)NC(=O)OCc2ccccc2)C(=O)N[C@@H](Cc2ccccc2)C(=O)C(=O)NCc2ccccc2)cc1` [Example 17, {(S)-1-[(S)-1-((S)-1-Benzyl-2-benzylcarbamoyl-2-oxo-ethylcarbamoyl)-2-(4-methoxy-phenyl)-ethylcarbamoyl]-ethyl}-carbamic acid benzyl ester], the IC50 (commonly the midpoint of a concentration-inhibition curve) is 988 nM against β5c; more than 20000 nM on β1c; 7 nM on β5i; more than 20000 nM with β2c/2i; 417 nM at β1i. For the same compound, the EC50 (usually the concentration giving half of the maximal effect) in [4] worked out at 939 nM.
`C[C@H](NC(=O)OCc1ccccc1)C(=O)N[C@@H](Cc1ccccn1)C(=O)N[C@@H](Cc1ccccc1)C(=O)C(=O)NCc1ccccc1` [Example 50, {(S)-1-[(S)-1-((S)-1-Benzyl-2-benzylcarbamoyl-2-oxo-ethylcarbamoyl)-2-pyridin-2-yl-ethylcarbamoyl]-ethyl}-carbamic acid benzyl ester]: the IC50 is 2890 nM on β5c; more than 20000 nM against β1c; 266 nM on β5i; more than 20000 nM in the assay on β2c/2i; 1280 nM against β1i. Further, it took 2740 nM to reach a half-maximal effect in [4] (EC50).
`C[C@H](NC(=O)C1Cc2ccccc2C1)C(=O)N[C@@H](CCc1ccccc1)C(=O)N[C@@H](Cc1ccccc1)C(=O)C(=O)NCc1ccccc1` [Example 42, Indan-2-carboxylic acid {(S)-1-[(S)-1-((S)-1-benzyl-2-benzylcarbamoyl-2-oxo-ethylcarbamoyl)-3-phenyl-propylcarbamoyl]-ethyl}-amide]: the 50% inhibitory concentration (IC50) on β5c is 14 nM; against β1c, 18100 nM; on β5i, 4 nM; in the assay with β2c/2i, more than 20000 nM; at β1i, 968 nM. The compound further had an EC50 in [4] of 379 nM.
Consider `CCCC[C@H](NC(=O)[C@H](Cc1c[nH]c2ccccc12)NC(=O)[C@H](C)NC(=O)OCc1ccccc1)C(=O)C(=O)NCc1ccccc1` [Example 9, {(S)-1-[(S)-1-((S)-1-Benzylaminooxalyl-pentylcarbamoyl)-2-(1H-indol-3-yl)-ethylcarbamoyl]-ethyl}-carbamic acid benzyl ester], for which the IC50 on β5c is 815 nM; at β1c, more than 20000 nM; on β5i, 26 nM; with β2c/2i it was more than 20000 nM; on β1i it was 34 nM. This compound also returned a concentration giving a half-maximal response (EC50) in assay [4] of 5290 nM.
In the case of `COc1ccc(C[C@H](NC(=O)[C@H](C)NC(=O)c2cc(C)on2)C(=O)N[C@@H](Cc2ccccc2)C(=O)C(=O)NCc2ccccc2)cc1` [Example 21, 5-Methyl-isoxazole-3-carboxylic acid {(S)-1-[(S)-1-((S)-1-benzyl-2-benzylcarbamoyl-2-oxo-ethylcarbamoyl)-2-(4-methoxy-phenyl)-ethylcarbamoyl]-ethyl}-amide], the IC50 against β5c is 765 nM; at β1c, more than 20000 nM; on β5i, 7 nM; in the assay with β2c/2i, more than 20000 nM; against β1i, 210 nM. The compound further registered an EC50 in assay [4] of 3490 nM.
Regarding `CCCCC(NC(=O)[C@H](COC)NC(=O)[C@H](C)NC(=O)c1cc(C)on1)C(=O)C(=O)NCc1ccccc1` (mixture of isomers) [Example 6, 5-Methyl-isoxazole-3-carboxylic acid {(S)-1-[(S)-1-((S)-1-benzylaminooxalyl-pentylcarbamoyl)-2-methoxy-ethylcarbamoyl]-ethyl}-amide], the IC50 against β5c was 5520 nM; at β1c, more than 20000 nM; at β5i, 1040 nM; in the assay on β2c/2i, more than 20000 nM; at β1i, 949 nM. This compound came in with an EC50 in assay [4] of 13600 nM.
`CCCC[C@H](NC(=O)[C@H](CC(C)C)NC(=O)[C@@H](NC(=O)CN1CCOCC1)C(C)(C)C)C(=O)C(=O)NCc1ccccc1` [Example 2, (S)-3-{(S)-2-[(S)-3,3-Dimethyl-2-(2-morpholin-4-yl-acetylamino)-butyrylamino]-4-methyl-pentanoylamino}-2-oxo-heptanoic acid benzylamide]: the IC50 against β5c is 2430 nM; at β1c, 8700 nM; at β5i it was 2080 nM; in the assay with β2c/2i it was more than 20000 nM; against β1i it was 661 nM. The compound further came in with an EC50 in assay [4] of 12100 nM.
